Consider five compounds from patent publication US20230019236A1, “PROTEIN TYROSINE PHOSPHATASE INHIBITORS AND METHODS OF USE THEREOF” (Calico Life Sciences LLC, priority 2019, published 2023).

The target of data set [1] is T1, His tagged full-length PTP1B protein (Homo sapiens, UniProt P18031).
T1 construct: made in house
T1 sequence (P18031 with tags, fused parts or gaps): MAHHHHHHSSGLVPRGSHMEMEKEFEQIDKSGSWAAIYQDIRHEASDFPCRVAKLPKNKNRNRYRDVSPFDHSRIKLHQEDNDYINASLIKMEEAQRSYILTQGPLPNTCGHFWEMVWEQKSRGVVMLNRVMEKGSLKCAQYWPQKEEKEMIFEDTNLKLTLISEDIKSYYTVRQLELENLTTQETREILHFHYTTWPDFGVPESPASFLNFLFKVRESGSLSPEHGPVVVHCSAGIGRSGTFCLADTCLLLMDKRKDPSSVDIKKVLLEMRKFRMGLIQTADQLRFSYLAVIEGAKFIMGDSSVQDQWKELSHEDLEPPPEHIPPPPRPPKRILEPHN
Briefly: Mobility Shift Assay (MSA) used to determine potency of PTP1B inhibitors. It is filed as biochemical. Conditions: Table 2. The procedure: The enzymatic assay used to determine activity is a mobility shift assay using a LabChip EZ Reader by Caliper Life Sciences. The enzymatic reaction was carried out in assay buffer (50 mM HEPES pH 7.5, 1 mM EGTA, 10 mM EDTA, 0.01% Tween® 20, and 2 mM DTT). […] The enzyme (at 0.5 nM) was incubated with compound for 10 minutes at room temperature. […] The % inhibition was then used to calculate the IC50 values.

Data set [2] has as its system Pan T cells isolated from C57BL6 splenocytes. Briefly: T cell activation assay (CD25/CD69 flow cytometry). In kind it is cell-based, mouse. The settings on record: with TCR stimulation; Table 5. The procedure: Example 295: T cell activation and function assays
Pan T cells were isolated from C57BL6 splenocytes using a MACS Pan T cell isolation kit II (Miltenyi Biotec, Auburn, Calif.) according to the manufacturer's instructions. Isolated T cells (200,000 cells/well in a 96 well flat-bottom plate) were cultured in RPMI 1640 supplemented with 10% FBS, […] 2-mercatoethanol, 100 U/mL penicillin, and 100 μg/mL streptomycin, and incubated with the indicated concentration of compound or DMSO in duplicates. After 1 hour, mouse T cell activator CD3/CD28 Dynabeads (ThermoFisher Scientific, Waltham, Mass.) were added at a 1:5 beads to cells ratio to stimulate the T cells for 2 or 3 days as outlined below. T cells with or without compound were incubated in the absence of T cell activator beads (media only) as control.
After 2 days of stimulation, activation status of T cells was assessed by flow cytometry. T cells were first subjected to Zombie Violet™ Fixable Viability dye (BioLegend, San Diego, Calif.) for dead cell exclusion, washed and then stained with BUV805 labeled anti-CD8, APC-R700 labeled anti-CD25 (both from BD Biosciences, San Jose, Calif.) and PE labeled anti-CD69 (BioLegend, San Diego, Calif.) antibodies. After staining, cells were fixed with 2% paraformaldehyde and acquired on a BD LSRFortessa™ X-20 flow cytometer (BD Biosciences, San Jose, Calif.) using BD FACSDiva™ software. Data was analyzed using FlowJo V10 (Flow Jo LLC, Ashland, OR). Dead cells were excluded and frequencies of activated CD8 T cells was reported as the frequency of CD25+ or CD69+ cells within the CD8+ population. The expression level of CD25 and CD69 indicates the activation status of cells on a per cell basis and was evaluated by the mean fluorescence intensities (MFI) of CD25 and CD69.
A general note: In flow cytometry, cells or beads pass a laser one at a time.

For data set [3], the system named is B16F10 mouse melanoma cells. Put plainly: B16F10 IFNγ-induced cellular growth inhibition assay. It is filed as cell-based. Conditions: for inhibition at 33 µM: Mus musculus, B16-F10, compound 33 μM, Table 3. As for the experimental part:
Example 294: B16F10 IFNγ-Induced Cellular Growth Inhibition Assay
B16F10 mouse melanoma cells (ATCC Cat# CRL-6475, Manassas, Va.) were seeded at a density of 500 cells per well in a 384-well clear bottom plate (Corning Cat#3765, Corning, N.Y.) in 25 μL total volume of DMEM+10% FBS (Sigma Cat# D6429 and Sigma Cat# F4135, St. Louis, MO). Cells were allowed to adhere overnight at 37° C. +5% CO2. On the following day, 12.5 μL of mouse IFNγ (RD systems Cat# 485-MI/CF, Minneapolis, Minn.) was added to half of the plate (columns 13-24) at a concentration of 2 ng/mL for a final assay concentration of 0.5 ng/mL of IFNγ. Media only (12.5 μL of DMEM+10% FBS) was added to the remainder of the plate (columns 1-12). Next, compounds resuspended in DMSO (Sigma Cat# D2650) at 100 mM were diluted in semi-log dilutions in DMSO ranging from 100 mM to 0.001 mM and DMSO only controls were included. The compound/DMSO dilutions were further diluted 1:250 in DMEM+10% FBS, and 12.5 μL of these dilutions were added in triplicates to cells of both treatment arms (with and without IFNγ). Final compound concentrations ranged from 100 μM to 0.001 μM with a final DMSO concentration of 0.1%. Compounds were only dosed in the inner 240 wells, avoiding the outer 2-well perimeter of the plate to minimize edge effects. Finally, the plate was loaded into an IncuCyte® S3 Live Cell Analysis System (Essen Bioscience-Sartorius, Ann Arbor, Mich.) maintained in a 37° C. +5% CO2 incubator, allowed to equilibrate for 2 hours, and imaged every 6 hours for 5 days. Confluence over time for compound dilutions in the presence and absence of IFNγ was measured. Growth inhibition values were obtained when the “DMSO/no IFNγ” control reached confluence >95%. At these time points, the percent growth inhibition of each compound at the indicated concentration was calculated relative to the “DMSO/with IFNγ” control.

For data set [4], the system named is MC-38 murine colon adenocarcinoma. Briefly: In vivo efficacy in MC38 syngeneic tumor model. The settings on record: 300 mg/kg/dose oral BID for 21 days. The procedure:
All experiments were conducted in compliance with AbbVie's Institutional Animal Care and Use Committee and the National Institutes of Health Guide for Care and Use of Laboratory Animals guidelines in a facility accredited by the Association for the Assessment and Accreditation of Laboratory Animal Care. […] The mice were group-housed 10 per cage. Food and water were available ad libitum. Animals were acclimated to the animal facilities for a period of at least one week prior to commencement of experiments. Animals were tested in the light phase of a 12-hour light:12-hour dark schedule (lights on 0600 hours).
Cells were grown to passage 3 in vitro. […] The injection volume was 0.1 mL and was composed of a 1:1 mixture of S-MEM and Matrigel® (Corning, N.Y., USA). […] Following size match, treatments were initiated on the same day. […] Compound 124 was formulated in 5% DMSO, 5% Tween 80 (Polysorbate 80), 20% PEG-400 and 70% D5W (5% dextrose in water) and was dosed at 10 mL/kg. […] Tumor volume was calculated three times weekly. Measurements of the length (L) and width (W) of the tumor were taken via electronic caliper and the volume was calculated according to the following equation: V=L×W^2/2 using Study Director Version 3.1.399.22 (Studylog Systems, Inc, CA, USA). […] Reported TGIMax is the largest TGI value for any timepoint that tumors volumes were collected for that treatment group.

Data set [5] deals with T2, His tagged PTPN2 (TC45) protein (Homo sapiens, UniProt P17706).
T2 construct: made in house
T2 sequence (P17706 with tags, fused parts or gaps isoform P17706-2): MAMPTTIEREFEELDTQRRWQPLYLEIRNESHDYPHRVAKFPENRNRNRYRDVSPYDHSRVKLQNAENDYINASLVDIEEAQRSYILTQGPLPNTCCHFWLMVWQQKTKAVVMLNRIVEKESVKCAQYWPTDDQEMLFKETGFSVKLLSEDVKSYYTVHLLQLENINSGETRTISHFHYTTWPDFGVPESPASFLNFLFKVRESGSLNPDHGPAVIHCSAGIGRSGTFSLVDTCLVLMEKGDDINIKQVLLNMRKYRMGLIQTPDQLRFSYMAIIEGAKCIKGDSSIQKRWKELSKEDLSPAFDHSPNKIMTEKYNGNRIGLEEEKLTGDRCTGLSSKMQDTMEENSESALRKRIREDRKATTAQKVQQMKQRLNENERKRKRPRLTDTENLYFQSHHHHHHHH
Briefly: Mobility Shift Assay used to determine potency of PTPN2 inhibitors. It is filed as biochemical. The settings on record: Table 2; read-out: PTPN2 MSA IC50. A digest of the protocol: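 His-tagged human PTPN2 (TC45), 0.5 nM, preincubated 10 min RT with compound (12-point, 1:3 dilution) in HEPES pH 7.5 buffer with EDTA/DTT; 2 µM OG488-labelled phospho-insulin-receptor peptide added, 10 min RT, then quenched. Dephosphorylation read by microfluidic mobility shift (ex 488/em 530 nm); IC50 from % inhibition.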

Read-outs that look alike come from different tables or passages of the source.

As a reminder, the IC50 is the concentration needed to halve the response being measured. Consider `O=C1CN(c2c(O)cc3ccc(C4=CCN(S(=O)(=O)C5CC5)C4)cc3c2F)S(=O)(=O)N1` [Compound 113, 5-{7-[1-(cyclopropanesulfonyl)-2,5-dihydro-1H-pyrrol-3-yl]-1-fluoro-3-hydroxynaphthalen-2-yl}-1λ^6,2,5-thiadiazolidine-1,1,3-trione], for which the half-maximal inhibitory concentration (IC50) in data set [1] was under 1 nM. Besides, the “T cell activation and T cell function” value in data set [2] is “increased both T cell activation and T cell function”.
Regarding `COc1ccc2cc(O)c(N3CC(=O)NS3(=O)=O)c(F)c2c1` [Compound 124, 5-(1-fluoro-3-hydroxy-7-methoxynaphthalen-2-yl)-1λ^6,2,5-thiadiazolidine-1,1,3-trione], in data set [1], the IC50 is 1 to 10 nM. For the same compound, the “growth inhibition in the absence of IFNγ” value in data set [3] (absence of IFNγ) is on record as “no observed growth inhibition”. For the same compound, the “T cell activation and T cell function” value in data set [2] was “increased both T cell activation and T cell function”. In addition, the tolerability entry in data set [4] is “well tolerated, without obvious adverse health events”.
On to `CC(C)(O)CCOc1ccc2cc(O)c(N3CC(=O)NS3(=O)=O)c(F)c2c1` [Compound 182, 5-[1-fluoro-3-hydroxy-7-(3-hydroxy-3-methylbutoxy)naphthalen-2-yl]-1λ^6,2,5-thiadiazolidine-1,1,3-trione], for which, in data set [2], the “T cell activation and T cell function” value was “increased both T cell activation and T cell function”. In addition, the tolerability result in data set [4] is on record as “well tolerated, without obvious adverse health events”.
`O=C1CN(c2c(O)cc3ccc(CC4CCN(S(=O)(=O)C5CC5)CC4)cc3c2F)S(=O)(=O)N1` [Compound 257, 5-(7-{[1-(cyclopropanesulfonyl)piperidin-4-yl]methyl}-1-fluoro-3-hydroxynaphthalen-2-yl)-1λ^6,2,5-thiadiazolidine-1,1,3-trione]: the IC50 in data set [5] is 1 to 10 nM; in data set [1], 10 to 100 nM. The inhibition at 33 µM was 25 to 59% in data set [3] (+0.5 ng/mL IFNγ, relative to DMSO/with IFNγ control, read-out: % B16F10 growth inhibition (+0.5 ng/mL IFNγ) @ 33 μM) and under 25% in data set [3] (no IFNγ, read-out: % B16F10 growth inhibition (no IFNγ) @ 33 μM).
In the case of `O=C1CN(c2c(O)cc3ccc(OC(F)F)cc3c2F)S(=O)(=O)N1` [Compound 260, 5-[7-(difluoromethoxy)-1-fluoro-3-hydroxynaphthalen-2-yl]-1λ^6,2,5-thiadiazolidine-1,1,3-trione], in data set [1], the IC50 was in the range of 10 to 100 nM. Besides, the “T cell activation and T cell function” value in data set [2] is “increased both T cell activation and T cell function”.
